In US20070129344A1, “Bicyclic 6-alkylidene-penem beta-lactamase inhibitors and beta-lactam antibiotic combination: a broad spectrum antibiotic” (priority 2005, published 2007):
Converted amounts (≈) assume the structure as drawn. Where two headings read alike, the source gives them in different places.

Tests used:
[1] = system: A. baumannii GC 6660 IMI-R; assay: MIC microbroth dilution; class PBP (penicillin binding protein); assay type: cell-based
Method: (§1) The in vitro activities of the antibiotics were determined by the microbroth dilution method as recommended by the National Committee for Clinical Laboratory Standards (NCCLS). (NCCLS. 2000. Methods for Dilution Antimicrobial Susceptibility Tests for Bacteria That Grow Aerobically; Approved Standards: M7-A5, vol. 19. National Committee for Clinical Laboratory Standards, Villanova, Pa.). Mueller-Hinton II broth (MHBII)(BBL Cockeysville, Md.), was used for the testing procedure. […]. The plates were incubated for 18-22 hours at 35° C. in ambient air.

[2] = system: A. baumannii GC 6661 IMI-R; assay: as above; assay type: cell-based
Method: as §1

[3] = system: A. baumannii GC 6662 IMI-R; assay: as above; assay type: cell-based
Method: as §1

[4] = system: E. coli GC 1499 (TEM-4 + TEM-1); assay: MIC microbroth dilution; β-lactamase class A, A (ESBL); assay type: cell-based
Method: as §1

[5] = system: E. coli GC 5901 (TEM-1 and SHV-8); assay: as above; assay type: cell-based
Method: as §1

[6] = system: E. coli GC 1695 (TEM-1 + TEM-10); assay: as above; assay type: cell-based
Method: as §1

[7] = system: E. coli GC 2146 (TEM-1; SHV-7); assay: as above; assay type: cell-based
Method: as §1

[8] = system: E. coli GC 6260 (TEM-1 + SHV-5); assay: as above; assay type: cell-based
Method: as §1

[9] = system: E. coli GC 2015 (TEM-10 + SHV-1); assay: as above; assay type: cell-based
Method: as §1

[10] = system: K. pneumoniae GC 7635 SHV-1, KPC2; assay: MIC microbroth dilution; β-lactamase class A, A (Cb'ase); assay type: cell-based
Method: as §1

[11] = system: E. coli GC 6368 (SHV-7); assay: MIC microbroth dilution; β-lactamase class A (ESBL); assay type: cell-based
Method: as §1

[12] = system: E. coli GC 2017 (TEM-10 + pl 6.3; 8.1); assay: as above; assay type: cell-based
Method: as §1

[13] = system: E. coli GC 1995 (TEM-10); assay: as above; assay type: cell-based
Method: as §1

[14] = system: E. coli GC 1684 (TEM-10); assay: as above; assay type: cell-based
Method: as §1

[15] = system: C. freundii GC 4171 TEM-1 + InducibleAmpC; assay: MIC microbroth dilution; β-lactamase class A, C; assay type: cell-based
Method: as §1

[16] = system: A. baumannii PT 9158 PTZ-R; assay: MIC microbroth dilution; β-lactamase class not determined; assay type: cell-based
Method: as §1

[17] = system: A. baumannii PT 8321 PTZ-R; assay: as above; assay type: cell-based
Method: as §1

[18] = system: E. coli ATCC 25922 (none); assay: MIC microbroth dilution; β-lactamase class none; assay type: cell-based
Method: as §1

[19] = system: E. coli GC 2844 (none); assay: MIC microbroth dilution; β-lactamase class none; assay type: cell-based
Method: as §1

[20] = system: E. coli GC 2804 (imp); assay: MIC microbroth dilution; β-lactamase class none; assay type: cell-based
Method: as §1

[21] = system: K. pn GC 6657 (TEM-1 + SHV-27); assay: MIC microbroth dilution; β-lactamase class A, A (ESBL); assay type: cell-based, K. pneumoniae
Method: as §1

[22] = system: K. pn GC 1507 (TEM-9 + SHV-1); assay: as above; assay type: cell-based, K. pneumoniae
Method: as §1

[23] = system: K. pn GC 3057 (CAZ-R; P/T-R); assay: as above; assay type: cell-based, K. pneumoniae
Method: as §1

[24] = system: K. pn GC 2006 (TEM-10 + SHV-1); assay: as above; assay type: cell-based, K. pneumoniae
Method: as §1

[25] = system: K. pn GC 6651 (TEM-1 + SHV-1 + SHV-5); assay: as above; assay type: cell-based, K. pneumoniae
Method: as §1

[26] = system: K. pn GC 6488 (TEM-1 + SHV-5 + SHV-7); assay: as above; assay type: cell-based, K. pneumoniae
Method: as §1

[27] = system: K. pn GC 1554 (TEM-1 + TEM-26 + SHV-1); assay: as above; assay type: cell-based, K. pneumoniae
Method: as §1

[28] = system: K. pn GC 6494 (TEM-1 + SHV-5); assay: as above; assay type: cell-based, K. pneumoniae
Method: as §1

[29] = system: K. pn GC 1963 (TEM-10 + SHV-1 + SHV-ESBL); assay: as above; assay type: cell-based, K. pneumoniae
Method: as §1

[30] = system: K. pn GC 6655 (TEM-1 + ACT-1); assay: MIC microbroth dilution; β-lactamase class A, C; assay type: cell-based, K. pneumoniae
Method: as §1

[31] = system: K. pn GC 3104 (MIR-1 + TEM-1); assay: MIC microbroth dilution; β-lactamase class A, C; assay type: cell-based, K. pneumoniae
Method: as §1

[32] = system: K. pneumoniae GC 7632 TEM-1 KPC-2, SHV-7, SHV-12; assay: MIC microbroth dilution; β-lactamase class A, A (Cb'ase), A (ESBL); assay type: cell-based
Method: as §1

[33] = system: S. marcescens GC 1781 (Sme-1 + AmpC); assay: MIC microbroth dilution; β-lactamase class A (Cb'ase), C; assay type: cell-based
Method: as §1

[34] = Cefepime alone, control of Compound 2 test
[35] = Escherichia coli, Cefepime alone, control of Compound 1 test, read-out: MIC
[36] = Klebsiella pneumoniae, Cefepime alone, control of Compound 1 test, read-out: MIC
[37] = Escherichia coli, Cefepime alone, control of Compound 2 test, read-out: MIC
[38] = Klebsiella pneumoniae, Cefepime alone, control of Compound 2 test, read-out: MIC

Structure (SMILES): O=C([O-])C1=CS[C@@H]2/C(=C\c3cn4c(n3)CCC4)C(=O)N12.[Na+] [Compound 1, (5R), (6Z)-6-(6,7-Dihydro-5H-pyrrolo[1,2-a]imidazol-2-ylmethylene)-7-oxo-4-thia-1-aza-bicyclo[3.2.0]hept-2-ene-2-carboxylic Acid, Sodium Salt]
- MIC ([1]; Cefepime + 4 ug/ml Compound 1): >16 µg/mL
- MIC ([2]; Cefepime + 4 ug/ml Compound 1): 16 µg/mL
- MIC ([3]; Cefepime + 4 ug/ml Compound 1): >16 µg/mL
- MIC ([4]; Cefepime + 4 ug/ml Compound 1): 0.50 µg/mL
- MIC ([5]; Cefepime + 4 ug/ml Compound 1): 4 µg/mL
- MIC ([6]; Cefepime + 4 ug/ml Compound 1): 0.03 µg/mL
- MIC ([7]; Cefepime + 4 ug/ml Compound 1): 0.12 µg/mL
- MIC ([8]; Cefepime + 4 ug/ml Compound 1): 0.03 µg/mL
- MIC ([9]; Cefepime + 4 ug/ml Compound 1): 0.25 µg/mL
- MIC ([10]; Cefepime + 4 ug/ml Compound 1): 8 µg/mL
- MIC ([11]; Cefepime + 4 ug/ml Compound 1): 0.03 µg/mL
- MIC ([12]; Cefepime + 4 ug/ml Compound 1): 0.12 µg/mL
- MIC ([13]; Cefepime + 4 ug/ml Compound 1): 0.06 µg/mL
- MIC ([14]; Cefepime + 4 ug/ml Compound 1): 0.06 µg/mL
- MIC ([15]; C. freundii GC 4171, Cefepime + 4 ug/ml Compound 1): 0.06 µg/mL
- MIC ([16]; Cefepime + 4 ug/ml Compound 1): 16 µg/mL
- MIC ([17]; Cefepime + 4 ug/ml Compound 1): >16 µg/mL
- MIC ([18]; E. coli ATCC 25922, Cefepime + 4 ug/ml Compound 1): 0.03 µg/mL
- MIC ([19]; Cefepime + 4 ug/ml Compound 1): 0.06 µg/mL
- MIC ([20]; Cefepime + 4 ug/ml Compound 1): <0.015 µg/mL
- MIC ([21]; Cefepime + 4 ug/ml Compound 1): 0.12 µg/mL
- MIC ([22]; Cefepime + 4 ug/ml Compound 1): 0.12 µg/mL
- MIC ([23]; Cefepime + 4 ug/ml Compound 1): 0.12 µg/mL
- MIC ([24]; Cefepime + 4 ug/ml Compound 1): 0.12 µg/mL
- MIC ([25]; Cefepime + 4 ug/ml Compound 1): 0.12 µg/mL
- MIC ([26]; Cefepime + 4 ug/ml Compound 1): 1 µg/mL
- MIC ([27]; Cefepime + 4 ug/ml Compound 1): 0.25 µg/mL
- MIC ([28]; Cefepime + 4 ug/ml Compound 1): 0.12 µg/mL
- MIC ([29]; Cefepime + 4 ug/ml Compound 1): 0.12 µg/mL
- MIC ([30]; Cefepime + 4 ug/ml Compound 1): 0.12 µg/mL
- MIC ([31]; Cefepime + 4 ug/ml Compound 1): 0.50 µg/mL
- MIC ([32]; Cefepime + 4 ug/ml Compound 1): 16 µg/mL
- MIC ([33]; Cefepime + 4 ug/ml Compound 1): 0.12 µg/mL

Structure (SMILES): CO/N=C(\C(=O)N[C@@H]1C(=O)N2C(C(=O)[O-])=C(C[N+]3(C)CCCC3)CS[C@H]12)c1csc(N)n1 [Cefepime, reference compound]
- MIC ([1]; Acinetobacter baumannii, GC6660IMIR, Cefepime alone, control of Compound 1 test, read-out: MIC): > 16 µg/mL
- MIC [1, 34]: >16 µg/mL
- MIC ([2]; Acinetobacter baumannii, GC6661IMIR, Cefepime alone, control of Compound 1 test, read-out: MIC): > 16 µg/mL
- MIC [2, 34]: >16 µg/mL
- MIC ([3]; Acinetobacter baumannii, GC6662IMIR, Cefepime alone, control of Compound 1 test, read-out: MIC): > 16 µg/mL
- MIC [3, 34]: >16 µg/mL
- MIC [4, 34]: >16 µg/mL
- MIC [4, 35]: > 16 µg/mL
- MIC [5, 34]: >16 µg/mL
- MIC [5, 35]: > 16 µg/mL
- MIC [6, 34]: >16 µg/mL
- MIC [6, 35]: > 16 µg/mL
- MIC [7, 34]: >16 µg/mL
- MIC [7, 35]: > 16 µg/mL
- MIC [8, 34]: >16 µg/mL
- MIC [8, 35]: > 16 µg/mL
- MIC [9, 34]: >16 µg/mL
- MIC [9, 35]: > 16 µg/mL
- MIC [10, 34]: >16 µg/mL
- MIC [10, 36]: > 16 µg/mL
- MIC [11, 35]: 1 µg/mL (≈ 2.08 µM)
- MIC [11, 37]: 2 µg/mL (≈ 4.16 µM)
- MIC [12, 34]: >16 µg/mL
- MIC [12, 35]: > 16 µg/mL
- MIC [13, 35]: 8 µg/mL (≈ 16.6 µM)
- MIC [13, 37]: 16 µg/mL (≈ 33.3 µM)
- MIC [14, 34]: >16 µg/mL
- MIC [14, 35]: > 16 µg/mL
- MIC ([15]; C. freundii GC 4171, Cefepime alone, control of Compound 2 test): 4 µg/mL (≈ 8.32 µM)
- MIC ([15]; Citrobacter freundii): 4 µg/mL (≈ 8.32 µM)
- MIC ([16]; Acinetobacter baumannii, PT9158PTZR, Cefepime alone, control of Compound 1 test, read-out: MIC): > 16 µg/mL
- MIC [16, 34]: >16 µg/mL
- MIC ([17]; Acinetobacter baumannii, PT8321PTZR, Cefepime alone, control of Compound 1 test, read-out: MIC): > 16 µg/mL
- MIC [17, 34]: >16 µg/mL
- MIC ([18]; Escherichia coli, ATCC25922, E. coli ATCC 25922, Cefepime alone, control of Compound 1 test, read-out: MIC): 0.03 µg/mL (≈ 0.0624 µM)
- MIC ([18]; Escherichia coli, ATCC25922, E. coli ATCC 25922, Cefepime alone, control of Compound 2 test, read-out: MIC): 0.06 µg/mL (≈ 0.125 µM)
- MIC [19, 34]: 0.06 µg/mL (≈ 0.125 µM)
- MIC [19, 35]: 0.06 µg/mL (≈ 0.125 µM)
- MIC ([20]; Escherichia coli, Cefepime alone, control of Compound 1 test): 0.03 µg/mL (≈ 0.0624 µM)
- MIC ([20]; Escherichia coli, Cefepime alone, control of Compound 2 test): < 0.015 µg/mL
- MIC [21, 34]: 0.12 µg/mL (≈ 0.25 µM)
- MIC [21, 36]: 0.12 µg/mL (≈ 0.25 µM)
- MIC [22, 34]: 8 µg/mL (≈ 16.6 µM)
- MIC [22, 36]: 8 µg/mL (≈ 16.6 µM)
- MIC [23, 34]: >16 µg/mL
- MIC [23, 36]: > 16 µg/mL
- MIC [24, 36]: > 16 µg/mL
- MIC [24, 38]: 8 µg/mL (≈ 16.6 µM)
- MIC [25, 36]: 8 µg/mL (≈ 16.6 µM)
- MIC [25, 38]: 4 µg/mL (≈ 8.32 µM)
- MIC [26, 36]: 8 µg/mL (≈ 16.6 µM)
- MIC [26, 38]: 4 µg/mL (≈ 8.32 µM)
- MIC [27, 36]: > 16 µg/mL
- MIC [27, 38]: 8 µg/mL (≈ 16.6 µM)
- MIC [28, 36]: 4 µg/mL (≈ 8.32 µM)
- MIC [28, 38]: 2 µg/mL (≈ 4.16 µM)
- MIC [29, 34]: >16 µg/mL
- MIC [29, 36]: > 16 µg/mL
- MIC [30, 36]: 2 µg/mL (≈ 4.16 µM)
- MIC [30, 38]: 4 µg/mL (≈ 8.32 µM)
- MIC [31, 36]: 0.5 µg/mL (≈ 1.04 µM)
- MIC [31, 38]: 1 µg/mL (≈ 2.08 µM)
- MIC [32, 34]: >16 µg/mL
- MIC [32, 36]: > 16 µg/mL
- MIC ([33]; Serratia marcescens, Cefepime alone, control of Compound 1 test, read-out: MIC): 0.25 µg/mL (≈ 0.52 µM)
- MIC ([33]; Serratia marcescens, Cefepime alone, control of Compound 2 test, read-out: MIC): 0.06 µg/mL (≈ 0.125 µM)
